Literature values in patent publication US20240293547A1, “POLYMERIC PERFLUOROCARBON NANOEMULSIONS FOR ULTRASONIC DRUG UNCAGING” (The Board of Trustees of the Leland Stanford Junior …, priority 2017, published 2024).

Conditions: for LogP: of the loaded drug

Row | LogP | log P | SMILES
1 | 2.8 |  | Cc1cccc([C@H](C)c2cnc[nH]2)c1C [Dexmedetomidine]
2 | 3.82 | 3.8 | COC(=O)C1=C(C)NC(C)=C(C(=O)OCCN(C)Cc2ccccc2)C1c1cccc([N+](=O)[O-])c1 (stereo not drawn) [Nicardipine]
